Molecular target: mGluR4 (UniProt Q14833)
Assay: mGluR4 potentiation assay: increase in response to an EC20 concentration of agonist (species not given)
Type: cell-based
Conditions: EC50 for potentiation of mGluR4; table does not state human or rat
Procedure, shortened: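 Human mGluR4 was expressed in CHO cells read with a Ca2+-sensitive dye; rat mGluR4 was co-expressed with GIRK in […] read by thallium flux. Potentiation is the rise over agonist-alone response, with EC50 and maximal potentiation from non-linear fits.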

EC50 [nM]	SMILES
3150	Cn1nc(O)c2ccc(Nc3n[nH]c4cccnc34)cc21 [Example 37, 6-((1H-pyrazolo[4,3-b]pyridin-3-yl)amino)-1-methyl-1H-indazol-3-ol]
215	CC(c1nn(C)c2cc(Nc3n[nH]c4cccnc34)ccc12)C(F)(F)F (stereo not drawn) [Example 46, N-(1-methyl-3-(1,1,1-trifluoropropan-2-yl)-1H-indazol-6-yl)-1H-pyrazolo[4,3-b]pyridin-3-amine]
19	CCCCCn1nc(C)c2cc(Nc3n[nH]c4cccnc34)ccc21 [Example 91]
146	Cn1nc(OCC2(C)COC2)c2ccc(Nc3n[nH]c4cccnc34)cc21 [Example 194, N-[1-methyl-3-[(3-methyloxetan-3-yl)methoxy]indazol-6-yl]-1H-pyrazolo[4,3-b]pyridin-3-amine]
224	Cc1cc(COc2nn(C)c3cc(Nc4n[nH]c5cccnc45)ccc23)no1 [Example 183, N-(1-methyl-3-((5-methylisoxazol-3-yl)methoxy)-1H-indazol-6-yl)-1H-pyrazolo[4,3-b]pyridin-3-amine]
482	Cn1nc(Oc2ccc(C#N)cn2)c2c(Cl)cc(Nc3n[nH]c4cccnc34)cc21 [Example 207, 6-[4-chloro-1-methyl-6-(1H-pyrazolo[4,3-b]pyridin-3-ylamino)indazol-3-yl]oxypyridine-3-carbonitrile]
112	Cn1nc(OCC2CC2(F)F)c2ccc(Nc3n[nH]c4cccnc34)cc21 (stereo not drawn) [Example 188, N-[3-[(2,2-difluorocyclopropyl)methoxy]-1-methyl-indazol-6-yl]-1H-pyrazolo[4,3-b]pyridin-3-amine]
157	Cn1nc(Oc2ccc(C#N)cn2)c2ccc(Nc3n[nH]c4cccnc34)cc21 [Example 237, 6-((6-((1H-pyrazolo[4,3-b]pyridin-3-yl)amino)-1-methyl-1H-indazol-3-yl)oxy)nicotinonitrile]
68	Cn1nc(C2(C)CC2)c2ccc(Nc3n[nH]c4cccnc34)cc21 [Example 28, N-(1-methyl-3-(1-methylcyclopropyl)-1H-indazol-6-yl)-1H-pyrazolo[4,3-b]pyridin-3-amine]
903	Cn1nc(C(=O)N2CC[C@@H](F)C2)c2ccc(Nc3n[nH]c4cccnc34)cc21 [Example 168, [(3R)-3-fluoropyrrolidin-1-yl]-[1-methyl-6-(1H-pyrazolo[4,3-b]pyridin-3-ylamino)indazol-3-yl]methanone]
377	CC1=NOC(Cn2nc(C)c3cc(Nc4n[nH]c5cccnc45)ccc32)C1 (stereo not drawn) [Example 121, N-(3-methyl-1-((3-methyl-4,5-dihydroisoxazol-5-yl)methyl)-1H-indazol-5-yl)-1H-pyrazolo[4,3-b]pyridin-3-amine]
> 10000	Cc1c2cc(Nc3n[nH]c4cccnc34)ccc2nn1C [Example 101, N-(2,3-dimethyl-2H-indazol-5-yl)-1H-pyrazolo[4,3-b]pyridin-3-amine]
294	[2H]C([2H])([2H])Oc1nn(C)c2cc(Nc3n[nH]c4cccnc34)ccc12 [Example 240, N-(3-(methoxy-d3)-1-methyl-1H-indazol-6-yl)-1H-pyrazolo[4,3-b]pyridin-3-amine]
3940	Cn1nc(C(=O)NCCS(C)(=O)=O)c2ccc(Nc3n[nH]c4cccnc34)cc21 [Example 159, 1-methyl-N-(2-methylsulfonylethyl)-6-(1H-pyrazolo[4,3-b]pyridin-3-ylamino)indazole-3-carboxamide]
> 10000	CC(C)n1nc(Cl)c2cc(Nc3n[nH]c4cccnc34)ccc21 [Example 280, N-(3-chloro-1-isopropyl-1H-indazol-5-yl)-1H-pyrazolo[4,3-b]pyridin-3-amine]
264	Cc1noc(Cn2nc(C)c3cc(Nc4n[nH]c5cccnc45)ccc32)n1 [Example 126, N-(3-methyl-1-((3-methyl-1,2,4-oxadiazol-5-yl)methyl)-1H-indazol-5-yl)-1H-pyrazolo[4,3-b]pyridin-3-amine]
96.6	Cn1nc(OCC2COC2)c2ccc(Nc3n[nH]c4cccnc34)cc21 [Example 195, N-[1-methyl-3-(oxetan-3-ylmethoxy)indazol-6-yl]-1H-pyrazolo[4,3-b]pyridin-3-amine]
865	Cn1nc(C(C)(C)O)c2ccc(Nc3n[nH]c4cccnc34)cc21 [Example 54, 2-(6-((1H-pyrazolo[4,3-b]pyridin-3-yl)amino)-1-methyl-1H-indazol-3-yl)propan-2-ol]
765	Cn1nc(N2CC(C)(C3CC3)CC2=O)c2ccc(Nc3n[nH]c4cccnc34)cc21 (stereo not drawn) [Example 39, 1-(6-((1H-pyrazolo[4,3-b]pyridin-3-yl)amino)-1-methyl-1H-indazol-3-yl)-4-cyclopropyl-4-methylpyrrolidin-2-one]
45	CCCCn1nc(C)c2cc(Nc3n[nH]c4cccnc34)ccc21 [Example 114, N-(1-butyl-3-methyl-1H-indazol-5-yl)-1H-pyrazolo[4,3-b]pyridin-3-amine]
653	Cn1nc(C(=O)NC2CCC2)c2ccc(Nc3n[nH]c4cccnc34)cc21 [Example 176, N-cyclobutyl-1-methyl-6-(1H-pyrazolo[4,3-b]pyridin-3-ylamino)indazole-3-carboxamide]
4600	Cc1ccccc1Cc1nn(C)c2cc(Nc3n[nH]c4nccnc34)ccc12 [Example 49, N-(1-methyl-3-(2-methylbenzyl)-1H-indazol-6-yl)-1H-pyrazolo[3,4-b]pyrazin-3-amine]
832	Cc1nn(CC(=O)O)c2ccc(Nc3n[nH]c4cccnc34)cc12 [Example 135, 2-(5-((1H-pyrazolo[4,3-b]pyridin-3-yl)amino)-3-methyl-1H-indazol-1-yl)acetic acid]

The next lines start with the compound.

SMILES	EC50 [nM]
[2H]C([2H])(C)n1nc(C)c2cc(Nc3n[nH]c4nccnc34)ccc21 [Example 127, N-(1-(ethyl-1,1-d2)-3-methyl-1H-indazol-5-yl)-1H-pyrazolo[3,4-b]pyrazin-3-amine]	154
CCC(F)(F)Cn1nc(C)c2cc(Nc3n[nH]c4cccnc34)ccc21 [Example 136, N-(1-(2,2-difluorobutyl)-3-methyl-1H-indazol-5-yl)-1H-pyrazolo[4,3-b]pyridin-3-amine]	253
CC(C)n1ncc2cc(Nc3n[nH]c4nccnc34)cnc21 [Example 153, N-(1-isopropyl-1H-pyrazolo[3,4-b]pyridin-5-yl)-1H-pyrazolo[3,4-b]pyrazin-3-amine]	413
Cc1nn(C2CC2)c2ncc(Nc3n[nH]c4cccnc34)cc12 [Example 263, 1-cyclopropyl-3-methyl-N-(1H-pyrazolo[4,3-b]pyridin-3-yl)pyrazolo[3,4-b]pyridin-5-amine]	410
Cn1nc(C2CC2)c2ccc(Nc3n[nH]c4ncc(F)cc34)cc21 [Example 5, N-(3-cyclopropyl-1-methyl-1H-indazol-6-yl)-5-fluoro-1H-pyrazolo[3,4-b]pyridin-3-amine]	364
Clc1n[nH]c2ccc(Nc3n[nH]c4cccnc34)cc12 [Example 140, N-(3-chloro-1H-indazol-5-yl)-1H-pyrazolo[4,3-b]pyridin-3-amine]	455
Cn1ncc2cc(Nc3n[nH]c4cccnc34)cc(Cl)c21 [Example 63, N-(7-chloro-1-methyl-1H-indazol-5-yl)-1H-pyrazolo[4,3-b]pyridin-3-amine]	85
CC(C)n1cc2cc(Nc3n[nH]c4cccnc34)cc(Cl)c2n1 [Example 62, N-(7-chloro-2-isopropyl-2H-indazol-5-yl)-1H-pyrazolo[4,3-b]pyridin-3-amine]	914
c1cnc2c(Nc3ccc4nn(CC5CCC5)cc4c3)n[nH]c2n1 [Example 87, N-(2-(cyclobutylmethyl)-2H-indazol-5-yl)-1H-pyrazolo[3,4-b]pyrazin-3-amine]	749
Cc1nn(C2CCCC2)c2ccc(Nc3n[nH]c4cccnc34)cc12 [Example 74, N-(1-cyclopentyl-3-methyl-1H-indazol-5-yl)-1H-pyrazolo[4,3-b]pyridin-3-amine]	265
Cc1c2cc(Nc3n[nH]c4cccnc34)ccc2nn1C(C)(C)C [Example 98, N-(2-(tert-butyl)-3-methyl-2H-indazol-5-yl)-1H-pyrazolo[4,3-b]pyridin-3-amine]	> 10000
c1cnc2c(Nc3ccc4c(cnn4CC4CCC4)c3)n[nH]c2n1 [Example 85, N-(1-(cyclobutylmethyl)-1H-indazol-5-yl)-1H-pyrazolo[3,4-b]pyrazin-3-amine]	57
Cn1nc(OCCN2CCOCC2)c2c(Cl)cc(Nc3n[nH]c4cccnc34)cc21 [Example 209, N-[4-chloro-1-methyl-3-(2-morpholinoethoxy)indazol-6-yl]-1H-pyrazolo[4,3-b]pyridin-3-amine]	322
CCCn1nc(C)c2cc(Nc3n[nH]c4cccnc34)cnc21 [Example 264, 3-methyl-1-propyl-N-(1H-pyrazolo[4,3-b]pyridin-3-yl)pyrazolo[3,4-b]pyridin-5-amine]	150
Cc1nn(C(C)C)c2cc(Nc3n[nH]c4ccccc34)ccc12 [Example 19, N-(1-isopropyl-3-methyl-1H-indazol-6-yl)-1H-indazol-3-amine]	> 10000
Cc1cc(Cn2ncc3ncc(Nc4n[nH]c5ccccc45)cc32)no1 [Example 26, N-(1H-indazol-3-yl)-1-((5-methylisoxazol-3-yl)methyl)-1H-pyrazolo[4,3-b]pyridin-6-amine]	> 10000
Cc1nn(CC2CC(c3ncccc3F)=NO2)c2ccc(Nc3n[nH]c4cccnc34)cc12 (stereo not drawn) [Example 115, N-(1-((3-(3-fluoropyridin-2-yl)-4,5-dihydroisoxazol-5-yl)methyl)-3-methyl-1H-indazol-5-yl)-1H-pyrazolo[4,3-b]pyridin-3-amine]	135
Cn1nc(C(=O)N2CCCC(F)C2)c2ccc(Nc3n[nH]c4cccnc34)cc21 (stereo not drawn) [Example 163, (3-fluoro-1-piperidyl)-[1-methyl-6-(1H-pyrazolo[4,3-b]pyridin-3-ylamino)indazol-3-yl]methanone]	2210
Cn1ncc2cc(Nc3n[nH]c4c3CCCC4)ccc21 [Example 57, 1-methyl-N-(4,5,6,7-tetrahydro-1H-indazol-3-yl)-1H-indazol-5-amine]	> 10000

Reference: patent US10526323B2, “Indazole and azaindazole substituted compounds as mGluR4 allosteric potentiators, compositions, and methods of treating neurological dysfunction” (Vanderbilt University, priority 2015, dated 2020)
